According to paper PMC12650265 (The Journal of Experimental Medicine, 2025):
pIC50: −log10 of the molar value. Entries after “also recorded” stand apart in the source; their conditions may differ.

Key:
hMR1 protein = target: T1, hMR1 protein (Homo sapiens, UniProt Q95460); assay: fluorescence polarization–based cell-free assay, competition with JYM20 for MR1 binding; conditions: 50% inhibition of 10 nM JYM20 binding to 100 nM empty hMR1, 37°C; three independent experiments in triplicate
T1 construct: plasmids encoding for the extracellular domains of MR1, β2m, and the AF-7 TCRα and TCRβ chains; made in house; host or cells: Escherichia coli BL21(DE3)

[1] = system: T2, human MR1–β2-microglobulin (β2m) complex; assay: refolding of recombinant MR1-β2m with ligand; assay type: binding; conditions: ligand added to refolding buffer; gel filtration and SDS-PAGE
T2 construct: plasmids encoding for the extracellular domains of MR1, β2m, and the AF-7 TCRα and TCRβ chains; made in house

[2] = system: T3, surface MR1*01 on C1R.MR1 cells; assay: quantification of cell surface MR1 by flow cytometry, C1R.MR1 cells; assay type: cell-based, human; conditions: for MR1 cell surface expression: C1R.MR1 cells, 1–200 µM, 8F2F9 antibody
T3 construct: expressed in transfected cells; host or cells: C1R B lymphoblastoid cells transduced with MR1*01

MR1 in C1R.MR1 cells = system: T4, MR1 in C1R.MR1 cells; assay: Endo H treatment and western blot of intracellular MR1; assay type: cell-based, human; conditions: 16 h, Ac-6-FP 10 μM, RF and catabolites 100 μM
T4 construct: expressed in transfected cells; host or cells: C1R B lymphoblastoid cells transduced with MR1*01
Protocol: The downregulation of MR1 on the cell surface by the RF catabolites could be due to the depletion of the intracellular ER-resident MR1 pool, or due to the retention of MR1 in the ER, as shown for the DB28 ligand ([Salio et al., 2020]). To investigate this, C1R.MR1 cells were treated for 16 h with 100 µM RF or RF catabolites, conditions that induce MR1 downregulation (Fig. 3 A). Cells were lysed, and treated with endoglycosidase (Endo) H, to distinguish molecules that remain within the ER from those that have trafficked to the cell surface ([McWilliam et al., 2016]), and then, MR1 levels were assessed by immunoblotting (Fig. 3 A).
C1R.MR1 cells were cultured with different RF catabolites for 16 h, at 37°C. Samples were then treated with or without Endo H for 1-h incubation at 37°C. Cells were lysed, and lysate protein concentration was quantified by BCA assay. Equal amounts of samples (40 µg total protein) were separated on SDS-PAGE gels before being transferred onto nitrocellulose membranes and incubated with primary (anti-MR1; clone 8G3) ([McWilliam et al., 2020]) then corresponding secondary antibody (IRDye 800CW anti-mouse IgG, Cat. No. 925-32210; LICORbio). The protein bands were visualized by the Li-Cor system.

[3] = system: T5, MR1^R9H on C1R.MR1^R9H cells; assay: cell surface MR1^R9H by flow cytometry; assay type: cell-based, human
T5 construct: expressed in transfected cells; host or cells: C1R cells stably transduced with MR1^R9H
Text: (§1) We then tested the effect of the RF catabolites on the expression of two mutant versions of MR1 termed MR1^R9H ([Howson et al., 2020]) and MR1^K43A ([Reantragoon et al., 2013]). First, we tested the MR1^R9H mutant ([Howson et al., 2020]), which represents a rare, natural human polymorph. […] We used C1R.MR1^R9H cells, which are produced by stable transduction of wild-type C1R cells, which express low levels of wild-type MR1, with a vector expressing the MR1^R9H mutant ([Howson et al., 2020]). […] When C1R. […] Next, we sought to understand how the previously characterized K43A mutation affects ligand binding.
The level of MR1 expressed on the cell surface was measured after the exposure to the investigated ligands as previously described ([Awad et al., 2020a]; [Wang et al., 2022a]). C1R Ag-presenting B lymphocytes overexpressing MR1*01 (C1R.MR1), MR1^K43A mutant (C1R.MR1^K43A), MR1^R9H mutant (C1R.MR1^R9H), or HLA-A*02:01 (C1R-A2), in addition to the monocytic THP-1-MR1 cells, were used in this study. […] The PE fluorescence intensity reflects the surface MR1 level. The data were acquired with LSRFortessa X-20 (BD Biosciences) and Diva software (BD Biosciences) and analyzed using FlowJo software (BD Biosciences).

[4] = system: T6, MR1^K43A on C1R.MR1^K43A cells; assay: cell surface MR1^K43A by flow cytometry; assay type: cell-based, human
T6 construct: expressed in transfected cells; host or cells: C1R cells overexpressing MR1^K43A
Text: as §1
The level of MR1 expressed on the cell surface was measured after the exposure to the investigated ligands as previously described ([Awad et al., 2020a]; [Wang et al., 2022a]). C1R Ag-presenting B lymphocytes overexpressing MR1*01 (C1R.MR1), MR1^K43A mutant (C1R.MR1^K43A), MR1^R9H mutant (C1R.MR1^R9H), or HLA-A*02:01 (C1R-A2), in addition to the monocytic THP-1-MR1 cells, were used in this study. 2 × 10^5 cells were incubated with RF catabolites for 3 or 16 h at 37°C and 5% CO2 in 200 μl folate-free RPMI 1640 medium from Gibco (Cat. No. 11875-093) fortified with 10% fetal bovine serum, sodium pyruvate (1 mmol/L), HEPES buffer (15 mmol/L), pH 7.2–7.5, 2% penicillin (100 U/ml), streptomycin ([…]), GlutaMAX (2 mmol/L), nonessential amino acids (0.1 mmol/L) (all from Thermo Fisher Scientific, Life Technologies), and 2-mercaptoethanol ([…], Sigma-Aldrich) (RF-10). After incubation, the cells were first stained with Zombie Aqua Fixable Viability Kit from BioLegend (Cat. No. 423102) and then incubated with biotinylated 8F2F9 αMR1 antibody for 30 min on ice. The unbound antibody was then washed off with 2% fetal bovine serum/PBS (called 2% FACS hereafter) buffer. The cells were finally incubated with PE-conjugated streptavidin (30 μg/ml; BioLegend) and then washed with 2% FACS buffer. The PE fluorescence intensity reflects the surface MR1 level. The data were acquired with LSRFortessa X-20 (BD Biosciences) and Diva software (BD Biosciences) and analyzed using FlowJo software (BD Biosciences).

MR1 on C1R.MR1 cells = system: T7, MR1 on C1R.MR1 cells; assay: competition with Ac-6-FP or 5-OP-RU for MR1 upregulation, C1R.MR1 cells; assay type: cell-based, human; conditions: 1–200 µM overnight
T7 construct: expressed in transfected cells; host or cells: C1R B lymphoblastoid cells transduced with MR1*01

MR1 on THP-1.MR1 cells = system: T8, MR1 on THP-1.MR1 cells; assay: competition with Ac-6-FP for MR1 upregulation, THP-1.MR1 cells; assay type: cell-based, human; conditions: 1–200 µM overnight, then 10 µM Ac-6-FP for 3 h
T8 construct: expressed in transfected cells; host or cells: THP-1 monocytic cells transduced with MR1

[5] = system: SKW-3 cells expressing MAIT TCR AF-7; assay: SKW-3 reporter T cell activation (CD69), coculture with C1R.MR1; assay type: cell-based; conditions: for reactivity to 5-OP-RU (CD69): SKW-3-AF-7, in the presence of 1 nM 5-OP-RU; for reactivity to RL-7-Me (CD69): SKW-3-AF-7, in the presence of 100 nM RL-7-Me
Protocol: (§2) Given the intracellular MR1 retention induced by the RF catabolites, we anticipated that these ligands could influence the activity of MR1-reactive T cells. First, we utilized a system whereby reporter SKW-3 T cell lines were cocultured with C1R.MR1 APCs and activation was determined by CD69 expression. […] In contrast, SKW-3-MBV28 cells were inhibited by alloxazine but activated by lumichrome (Fig. S3, D–F). Two MR1-restricted TRAV1-2^−ve SKW-3 T cell lines were also tested.
(§3) C1R.MR1 cells (1 × 10^5) were initially stained with CTV (Thermo Fisher Scientific) for 15 min and then incubated with RF catabolites for 20 h. […] Cells were subsequently stained with PE-Cy7-conjugated anti-CD69 (1:100; BD Biosciences) and PE-labeled anti-MR1 (1:100, clone 26.5; BD Biosciences), before analysis on a LSRFortessa (BD Biosciences) flow cytometer. Activation of the SKW-3 cells was reflected by the cell surface CD69 expression.

[6] = system: SKW-3 cells expressing MAIT TCR MBV28; assay: as above; assay type: cell-based
Protocol: as §2, §3

[7] = system: MAIT and TRAV1-2^−ve cells from PBMCs; assay: TCR-independent or bead stimulation of PBMCs (PMA and ionomycin, αCD3/αCD28 beads); assay type: cell-based, human
soluble WT MR1 = assay: fluorescence-based thermal shift (thermostability) assay of MR1–ligand complexes; assay type: binding, human; conditions: MR1 refolded with the ligand; SYPRO Orange, 28 to 95°C; three independent experiments; listed as MR1-Lumichrome
MR1^R9H = system: T9, MR1^R9H; assay: refolding of MR1^R9H with ligand in solution; assay type: binding, human
T9 construct: plasmids encoding for the extracellular domains of MR1, β2m, and the AF-7 TCRα and TCRβ chains; made in house
Text: as §1
Escherichia coli BL21(DE3) cells were transformed with plasmids encoding for the extracellular domains of MR1, β2m, and the AF-7 TCRα and TCRβ chains ([Kjer-Nielsen et al., 2012]; [Patel et al., 2013]; [Wang et al., 2022a]). The proteins were then expressed, and the inclusion bodies were purified, cleaned, and used for refolding. For both MR1 and AF-7 TCR, inclusion bodies were refolded through rapid dilution overnight as previously mentioned ([Keller et al., 2017]). To refold MR1 with ligands, 58 mg MR1 inclusion bodies along with 30 mg of β2m inclusion bodies were placed in 500 ml of refold buffer consisting of 0.1 M Tris, pH 8.0, 5 M of urea, 2 mM EDTA, 2.5 mM oxidized glutathione, 20 mM reduced glutathione, and 0.4 M of L-arginine for 16 h at 4°C. […]

[8] = system: T10, MR1 on PBMC-derived B lymphocytes; assay: MR1 surface expression on primary B cells; assay type: cell-based; conditions: primary human B cells, 16 h, highest doses, with or without 5-OP-RU
T10 construct: we also measured MR1 on the surface of cells expressing wild-type levels of MR1; endogenous in cells; host or cells: PBMC-derived B lymphocytes from healthy human donors

[9] = system: T11, folded MR1 in C1R.MR1 cells; assay: intracellular total folded MR1 by flow cytometry (8F2.F9); assay type: cell-based, human; conditions: 16 h, 100 µM
T11 construct: expressed in transfected cells; host or cells: C1R B lymphoblastoid cells transduced with MR1*01

SKW-3-DGB129 line = assay: SKW-3 reporter T cell activation (CD69), coculture with C1R.MR1; assay type: cell-based; conditions: SKW-3-DGB129 cocultured with C1R.MR1
Protocol: as §2, §3

SKW-3-MAV36 line = assay: as above; assay type: cell-based; conditions: SKW-3-MAV36, in the presence of 5-OP-RU
Protocol: as §2, §3

[10] = system: CD3^+ MR1-5-OP-RU tetramer^+ MAIT cells; assay: MAIT cell proliferation in CTV-labeled PBMCs; assay type: cell-based, human; conditions: 7-day culture, 5-OP-RU 10 µM, others 100 µM
MAIT cells from PBMCs = assay: primary MAIT cell activation in PBMCs (CD69, TNF); assay type: cell-based, human; conditions: 18 h, in the presence of 5-OP-RU or 5-A-RU
Vγ9Vδ2 T cells = assay: Vγ9Vδ2 T cell activation by zoledronate in PBMCs; assay type: cell-based, human; conditions: PBMCs titrated with ligand in the presence of zoledronate

T1 sequence (Q95460 23-302 limits assumed): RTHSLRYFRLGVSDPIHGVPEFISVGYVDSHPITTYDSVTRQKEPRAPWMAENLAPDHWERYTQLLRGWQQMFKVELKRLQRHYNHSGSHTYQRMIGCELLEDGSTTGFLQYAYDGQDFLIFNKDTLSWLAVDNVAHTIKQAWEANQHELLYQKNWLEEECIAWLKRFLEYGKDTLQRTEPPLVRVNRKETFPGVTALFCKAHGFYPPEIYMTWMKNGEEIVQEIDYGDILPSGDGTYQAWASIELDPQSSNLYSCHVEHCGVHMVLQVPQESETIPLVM
T1 sequence (P61769 21-119 partner): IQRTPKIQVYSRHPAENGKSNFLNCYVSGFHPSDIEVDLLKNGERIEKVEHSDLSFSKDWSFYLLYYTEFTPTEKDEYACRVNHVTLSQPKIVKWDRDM

SMILES: Cc1cc2nc3c(=O)[nH]c(=O)nc-3n(C[C@H](O)[C@H](O)[C@H](O)CO)c2cc1C [RF, riboflavin]
- pIC50 (hMR1 protein): 3.74
- folding of the MR1-β2m cocomplex in solution [1]: did not sponsor refolding of MR1
- MR1 cell surface expression ([2]; 3 h): did not alter MR1 expression from the baseline
- MR1 cell surface expression ([2]; 16 h): modestly upregulated MR1; also recorded: modest increase
- Endo H–resistant MR1 (MR1 in C1R.MR1 cells): Neither RF nor its catabolites induced any Endo H–resistant MR1
- MR1^R9H surface level [3]: did not deviate from the background level
- MR1^K43A at the cell surface ([4]; 16 h): MR1 upregulation continues
- effect on Ac-6-FP–induced cell surface upregulation of MR1 (MR1 on C1R.MR1 cells; then 10 µM Ac-6-FP for 3 h): did not modulate
- effect on 5-OP-RU–induced cell surface upregulation of MR1 (MR1 on C1R.MR1 cells; then 5-OP-RU for 3 h): did not modulate
- effect on Ac-6-FP–induced cell surface upregulation of MR1 (MR1 on THP-1.MR1 cells): did not modulate
- reactivity to 5-OP-RU (CD69) [5]: not altered
- reactivity to RL-7-Me (CD69) [5]: activation was enhanced
- activation (CD69 expression), ligand alone ([5]; SKW-3 AF-7 cocultured with C1R.MR1, no agonist): not activated
- activation (CD69 expression), ligand alone ([6]; SKW-3 MBV28 cocultured with C1R.MR1, no agonist): not activated
- block of CD69 upregulation and TNF production ([7]; PBMCs preincubated 16 h, then PMA and ionomycin, MAIT or non-MAIT TRAV1-2^−ve cells): neither RF nor RF catabolites could block

SMILES: Cc1cc2nc3[nH]c(=O)[nH]c(=O)c3nc2cc1C [Lumichrome, 7,8-dimethylalloxazine]
- pIC50 (hMR1 protein): 4.90
- Tm50 (half-maximum melting temperature), Mean ± SD (soluble WT MR1): 49.89 ± 0.33 °C
- folding of the MR1-β2m cocomplex in solution [1]: facilitated the correct folding of the MR1-β2m cocomplex
- refolding with MR1^R9H (MR1^R9H): did not refold with MR1^R9H in solution; also recorded: unable to refold
- MR1 cell surface expression ([2]; 3 h): reduced MR1 cell surface
- rank as downregulator of MR1 cell surface expression ([2]; overall: lumichrome, then alloxazine, lumiflavin, FMF): most potent downregulator
- MR1 surface expression [8]: reduced MR1 surface expression
- total level of folded MR1 (intracellular staining with 8F2.F9) [9]: increased the total level of folded MR1
- MR1^K43A at the cell surface ([4]; 3 h): increased MR1^K43A at the cell surface
- MR1^K43A at the cell surface ([4]; 16 h): MR1 upregulation continues
- reactivity to 5-OP-RU (CD69) [5]: enhanced activation
- reactivity to RL-7-Me (CD69) [5]: inhibited in a dose-dependent manner
- reactivity to 5-OP-RU (CD69) ([6]; SKW-3-MBV28, in the presence of 5-OP-RU): activated
- reactivity of MR1 autoreactive, nucleobase-adduct reactive line (CD69) (SKW-3-DGB129 line): inhibited
- reactivity to 5-OP-RU (CD69) (SKW-3-MAV36 line): inhibited
- MAIT cell proliferation [10]: significantly reduced MAIT cell proliferation
- MAIT cell inhibition (CD69 MFI, % CD69^+, TNF production) (MAIT cells from PBMCs): most potent competitor showing the strongest MAIT cell inhibition
- CD69 upregulation by MAIT or TRAV1-2^−ve cells ([7]; PBMCs preincubated, then αCD3- and αCD28-coated beads): not reduced
- Vγ9Vδ2 T cell activation induced by zoledronate (% CD69^+ Vδ2^+) (Vγ9Vδ2 T cells): did not interfere
